From US20240398969A1, “ANTIBODY-DRUG CONJUGATES FOR TREATING INFECTIONS OF HUMAN IMMUNODEFICIENCY VIRUS (HIV)” (priority 2023, published 2024)
Read-outs that look alike come from different tables or passages of the source.

Experiments:
Type in all cases: cell-based
HDAC [1] = test: Cellular HDAC enzymatic assay (FLUOR DE LYS HDAC fluorometric cellular activity assay) in CD4 enriched Jurkat T cells
Experimental: (§1) Cellular HDAC enzymatic assay was conducted for 3 days with the CD4 enriched Jurkat T lymphocyte cells or B lymphocyte cells treated with various amounts of drugs using FLUOR DE LYS® HDAC fluorometric cellular activity assay kit (Enzo Life Sciences, Inc., cat. No: BML-AK503-0001). The assay was performed following the manufacturer's instructions. […] The Fluor de Lys substrate was added in a culture media. After 30 min 37° C., 1 volume of the developer was added. After 15 min 37° C., the fluorophore was excited with 355 nm light and the emitted light (450 nm) was being detected on a fluorometric plate reader (Clariostar: BMG, Buckinghamshire, UK). For each experiment, controls (containing CD4 enriched Jurkat T lymphocyte cells or Ramos B lymphocyte cells and buffer), a blank incubation (containing buffer but no CD4 enriched Jurkat T lymphocyte cells or Ramos B lymphocyte cells) and samples (containing compound dissolved in DMSO or ADCs dissolved in PBS and further diluted in medium) were run in parallel. In each test the blank value was subtracted from both the control and the sample values. The control sample represented 100% of substrate deacetylation. For each sample the fluorescence was expressed as a percentage of the mean value of the controls.

HDAC [2] = test: Cellular HDAC enzymatic assay (FLUOR DE LYS HDAC fluorometric cellular activity assay) in Ramos B lymphocyte cells
Experimental: as §1

[3] = tested on: Jurkat CD4^+ (human T lymphocyte cells); test: Cytotoxicity assay, CellTiter-Glo Luminescent Cell Viability Assay, Jurkat; conditions: 72 h, read-out: IC50 value of Luminescent Cell Viability Assay
Experimental: In vitro cytotoxicity assay was conducted for 3 days with the CD4 enriched Jurkat T cells and treated with various amounts of drugs using CellTiter-Glo® Luminescent Cell Viability Assay Kit (Promega, G7571). The assay was performed following the manufacturer's instructions. Briefly, cells were plated in 96-well plates at […] in 100 μl RPMI 1640 medium with 10% heat-inactivated Fetal Bovine Serum. The following day, a serial ten-fold dilution for eight points of drugs (Romidepsin, TMB-355-ADC, and TMB-355) was used. The final concentration in the test was ranging from 1×10^3 nM to 1×10^−4 nM for Romidepsin, from 6.67×10^2 nM to 6.67×10^−5 nM for TMB-355-ADC and TMB-355. The cells were then incubated at 37° C. for 72 h. Subsequently, 100 μL/well of CellTiter-Glo reagent was added and the cells were shaken for 2 minutes and then incubated for an additional 10 minutes at room temperature. After the incubation time, luminescence (light) was measured in a luminometer (Clariostar: BMG, Buckinghamshire, UK). The IC50 corresponds to the drug concentration which achieves 50% activity of untreated control cultures. IC50 values were calculated using the software package Prism 6.0 (GraphPad Software Inc., San Diego, Calif.) with variable slope option.

[4] = tested on: Ramos(human B lymphocyte); test: Cytotoxicity assay, CellTiter-Glo Luminescent Cell Viability Assay, Ramos; conditions: 72 h, read-out: IC50 value of Luminescent Cell Viability Assay

| Molecule | IC50 (HDAC [1]; read-out: IC50 value of Cellular HDAC enzymatic assay; Jurkat CD4^+ (human T lymphocyte cells), 3 days) | IC50 (HDAC [2]; read-out: IC50 value of Cellular HDAC enzymatic assay; Ramos (human B lymphocyte), 3 days) | IC50 ([3]; Homo sapiens, Jurkat) | IC50 ([4]; Homo sapiens, Ramos) | IC50 (HDAC [1]; Jurkat CD4^+ (human T lymphocyte cells), 3 days; read-out: IC50 value of Cellular HDAC enzymatic assay) | IC50 (HDAC [2]; Ramos (human B lymphocyte), 3 days; read-out: IC50 value of Cellular HDAC enzymatic assay) | IC50 ([3]; Jurkat CD4^+ (human T lymphocyte cells)) | IC50 ([4]; Ramos (human B lymphocyte)) |
| --- | --- | --- | --- | --- | --- | --- | --- | --- |
| C/C=C1\NC(=O)[C@H]2CSSCC/C=C/[C@H](CC(=O)N[C@H](C(C)C)C(=O)N2)OC(=O)[C@H](C(C)C)NC1=O [Romidepsin] | 1.6 nM | 3.9 nM | 1.6 nM | 2.2 nM |  |  |  |  |
| TMB-355 |  |  |  |  | > 667 nM | > 667 nM | > 667 nM | > 667 nM |
